Results from publication PMC7914897, “Cytotoxic Potential of a-Azepano- and 3-Amino-3,4-SeCo-Triterpenoids” (International Journal of Molecular Sciences, 2021).
Like-named read-outs stand apart in the source and are kept apart here.

What was measured:
[1] = system: NIH 3T3 (non-malignant mouse fibroblasts); experiment: SRB cytotoxicity assay, 72 h; format: cell-based; conditions: Mus musculus, NIH3T3; NIH 3T3, 72 h, cut-off 30 µM; read-out: EC50
Protocol: The cytotoxicity of compounds 1–20 was evaluated by means of a colorimetric sulforhodamine B (SRB) assay. For all compounds, the EC50 values were determined for the human tumor cell lines A375 (malignant melanoma), HT29 (colorectal carcinoma), MCF-7 (breast carcinoma), A2780 (ovarian carcinoma), FaDu (hypopharyngeal carcinoma), and NIH 3T3 (non-malignant mouse fibroblasts).
In short, exponentially growing cells were seeded into 96-well plates on day 0 at the appropriate cell densities to prevent confluence of the cells during the period of experiment. After 24 h, the cells were treated with serial dilutions of the compounds (0–30 µM) for 72 h. The final concentration of DMSO never exceeded 0.5%, which was non-toxic to the cells. After a 72 h treatment, the supernatant medium from the 96-well plates was discarded, and the cells were fixed with 10% TCA. For a thorough fixation, the plates were allowed to rest at 4 °C. After fixation, the cells were washed in a strip washer. The washing was done four times with water using alternate dispensing and aspiration procedures. The plates were then dyed with 100 µL of 0.4% SRB for about 20 min. After dying, the plates were washed with 1% acetic acid to remove the excess of the dye and allowed to air-dry overnight. Tris base solution (200 µL, 10 mM) was added to each well and absorbance was measured at λ = 570 nm (using a 96 well plate reader, Tecan Spectra, Crailsheim, Germany). The percentages of surviving cells relative to untreated controls were determined.

OVCAR-4 (Ovarian cancer) = experiment: NCI-60 screen (SRB, 48 h); format: cell-based; conditions: Homo sapiens
BT-549 (Breast cancer) = experiment: NCI-60 screen (SRB, 48 h); format: cell-based; conditions: Homo sapiens
[2] = system: MDA-MB-468 (Breast cancer); experiment: cells; conditions: Homo sapiens
Colon Cancer subpanel = experiment: NCI-60 screen, subpanel; conditions: Homo sapiens
Renal Cancer subpanel = experiment: NCI-60 screen, subpanel; conditions: Homo sapiens
EKVX (NSC lung cancer) = experiment: NCI-60 screen (SRB, 48 h); conditions: Homo sapiens
HOP-62 (NSC lung cancer) = experiment: NCI-60 screen (SRB, 48 h); conditions: Homo sapiens
[3] = system: NCI-H322M (NSC lung cancer); experiment: NCI-60 screen (SRB, 48 h); conditions: Homo sapiens
HCT-116 (Colon cancer) = experiment: NCI-60 screen (SRB, 48 h); conditions: Homo sapiens
SNB-75 (CNS cancer) = experiment: NCI-60 screen (SRB, 48 h); conditions: Homo sapiens
UACC-62 (Melanoma) = experiment: NCI-60 screen (SRB, 48 h); conditions: Homo sapiens
OVCAR-8 (Ovarian cancer) = experiment: NCI-60 screen (SRB, 48 h); conditions: Homo sapiens
[4] = system: NCI/ADR-RES (Ovarian cancer); experiment: NCI-60 screen (SRB, 48 h); conditions: Homo sapiens
SK-OV-3 (Ovarian cancer) = experiment: NCI-60 screen (SRB, 48 h); conditions: Homo sapiens
786-0 (Renal cancer) = experiment: NCI-60 screen (SRB, 48 h); conditions: Homo sapiens
A498 (Renal cancer) = experiment: NCI-60 screen (SRB, 48 h); conditions: Homo sapiens
ACHN (Renal cancer) = experiment: NCI-60 screen (SRB, 48 h); conditions: Homo sapiens
SN12C (Renal cancer) = experiment: NCI-60 screen (SRB, 48 h); conditions: Homo sapiens
PC-3 (Prostate cancer) = experiment: NCI-60 screen (SRB, 48 h); conditions: Homo sapiens
[5] = system: MDA-MB-31/ATCC (Breast cancer); experiment: NCI-60 screen (SRB, 48 h); conditions: Homo sapiens
[6] = system: panel of approximately 60 cancer cell lines; experiment: NCI-60 screen (SRB, 48 h), full panel

C=C(C)[C@@H]1CC[C@]2(C)[C@H](CC=C3[C@@H]4[C@@H](C)[C@H](C)CC[C@]4(CO)CC[C@]32C)[C@@]1(C)CCCN [Compound 19]
EC50 [1]: 4.64 ± 0.6 µM | IC (TGI) (OVCAR-4 (Ovarian cancer); OVCAR-4, 48 h): 2.85 µM | GI50 (OVCAR-4 (Ovarian cancer); OVCAR-4, read-out: GI50): 0.86 µM | CC50 (OVCAR-4 (Ovarian cancer); OVCAR-4, read-out: LC50 (the source's name)): 25 µM | GI50 (BT-549 (Breast cancer); BT-549): 2.56 µM | IC (TGI) (BT-549 (Breast cancer); BT-549, 48 h): 9.23 µM | CC50 (BT-549 (Breast cancer); BT-549, read-out: LC50 (the source's name)): 23.3 µM | GI50 ([2]; MDA-MB-468): 0.82 µM | IC (TGI) ([2]; MDA-MB-468, 48 h, read-out: TGI): 1.66 µM | CC50 ([2]; MDA-MB-468, read-out: LC50): 3.36 µM | IC (TGI) (Colon Cancer subpanel; 48 h, read-out: TGI MG_MID): 1.8 µM | GI50 (Colon Cancer subpanel; read-out: GI50 MG_MID): 0.9 µM | CC50 (Colon Cancer subpanel; read-out: LC50 MG_MID): 3.63 µM | IC (TGI) (Renal Cancer subpanel; 48 h, read-out: TGI MG_MID): 4.63 µM | GI50 (Renal Cancer subpanel; read-out: GI50 MG_MID): 1.56 µM | CC50 (Renal Cancer subpanel; read-out: LC50 MG_MID): 13.3 µM | GI50 (EKVX (NSC lung cancer)): 1.08 µM | IC (TGI) (EKVX (NSC lung cancer); 48 h, read-out: TGI): 2.94 µM | CC50 (EKVX (NSC lung cancer); read-out: LC50): 26.5 µM | GI50 (HOP-62 (NSC lung cancer); HOP-62): 1.08 µM | IC (TGI) (HOP-62 (NSC lung cancer); HOP-62, 48 h, read-out: TGI): 2.36 µM | CC50 (HOP-62 (NSC lung cancer); HOP-62, read-out: LC50): > 50 µM | GI50 [3]: 1.74 µM | IC (TGI) ([3]; 48 h, read-out: TGI): 6.38 µM | CC50 ([3]; read-out: LC50): 18.6 µM | GI50 (HCT-116 (Colon cancer); HCT-116): 0.81 µM | IC (TGI) (HCT-116 (Colon cancer); HCT-116, 48 h, read-out: TGI): 1.54 µM | CC50 (HCT-116 (Colon cancer); HCT-116, read-out: LC50): 2.93 µM | GI50 (SNB-75 (CNS cancer); SNB-75): 0.85 µM | IC (TGI) (SNB-75 (CNS cancer); SNB-75, 48 h, read-out: TGI): 3.62 µM | CC50 (SNB-75 (CNS cancer); SNB-75, read-out: LC50): 17.1 µM | GI50 (UACC-62 (Melanoma); UACC-62): 5.82 µM | IC (TGI) (UACC-62 (Melanoma); UACC-62, 48 h, read-out: TGI): 12.6 µM | CC50 (UACC-62 (Melanoma); UACC-62, read-out: LC50): 27.3 µM | GI50 (OVCAR-8 (Ovarian cancer); OVCAR-8): 1.16 µM | IC (TGI) (OVCAR-8 (Ovarian cancer); OVCAR-8, 48 h, read-out: TGI): 2.8 µM | CC50 (OVCAR-8 (Ovarian cancer); OVCAR-8, read-out: LC50): > 50 µM | GI50 [4]: 0.99 µM | IC (TGI) ([4]; 48 h, read-out: TGI): 2.17 µM | CC50 ([4]; read-out: LC50): 4.77 µM | GI50 (SK-OV-3 (Ovarian cancer); SK-OV-3): 4.42 µM | IC (TGI) (SK-OV-3 (Ovarian cancer); SK-OV-3, 48 h, read-out: TGI): 12 µM | CC50 (SK-OV-3 (Ovarian cancer); SK-OV-3, read-out: LC50): 30.5 µM | GI50 (786-0 (Renal cancer); 786-0): 0.84 µM | IC (TGI) (786-0 (Renal cancer); 786-0, 48 h, read-out: TGI): 1.58 µM | CC50 (786-0 (Renal cancer); 786-0, read-out: LC50): 2.97 µM | GI50 (A498 (Renal cancer); A498): 3.83 µM | IC (TGI) (A498 (Renal cancer); A498, 48 h, read-out: TGI): 11.2 µM | CC50 (A498 (Renal cancer); A498, read-out: LC50): 27.7 µM | GI50 (ACHN (Renal cancer)): 1.42 µM | IC (TGI) (ACHN (Renal cancer); 48 h, read-out: TGI): 3.4 µM | CC50 (ACHN (Renal cancer); read-out: LC50): 17 µM | GI50 (SN12C (Renal cancer)): 0.84 µM | IC (TGI) (SN12C (Renal cancer); 48 h, read-out: TGI): 1.67 µM | CC50 (SN12C (Renal cancer); read-out: LC50): 3.34 µM | GI50 (PC-3 (Prostate cancer); PC-3): 1.65 µM | IC (TGI) (PC-3 (Prostate cancer); PC-3, 48 h, read-out: TGI): 7.48 µM | CC50 (PC-3 (Prostate cancer); PC-3, read-out: LC50): 26 µM | GI50 [5]: 0.96 µM | IC (TGI) ([5]; 48 h, read-out: TGI): 1.71 µM | CC50 ([5]; read-out: LC50): 3.04 µM | Positive Cytostatic Effect (cell lines with percent growth 0 to 50 / total) ([6]; 1 dose 10 µM): 20/60 | Positive Cytotoxic Effect (cell lines with percent growth < 0 / total) ([6]; 1 dose 10 µM): 28/60 | number of cancer cell lines the compound was active against ([6]; 1 dose 10 µM): 45 cell lines | activity at 10 µM ([6]; Homo sapiens, 48 h, read-out: Mean Growth, %): -4.29% | activity at 10 µM ([6]; Homo sapiens, 48 h, read-out: Range of Growth, %): -99 to 84.5% | IC (TGI) ([6]; Homo sapiens, 48 h, read-out: TGI MG_MID60, average over all cell lines): 3.89 µM | GI50 ([6]; Homo sapiens, read-out: GI50 MG_MID60): 1.42 µM | GI50 ([6]; Homo sapiens, read-out: GI50 against all human tumor cell lines): < 10 µM | GI50 ([6]; Homo sapiens, read-out: GI50 against the most sensitive cell lines): 0.2 to 0.94 µM | CC50 ([6]; Homo sapiens, read-out: LC50 MG_MID60, average over all cell lines): 17 µM
